Paper PMC11091889, “Silver Organometallics that are Highly Potent Thioredoxin and Glutathione Reductase Inhibitors: Exploring the Correlations of Solution Chemistry with the Strong Antibacterial Effects” (ACS Infectious Diseases, 2024)

What was measured:
[1] = test system: P. aeruginosa PA7 (DSM 24068); test: microbe, parasite or virus in culture; assay type: cell-based, Pseudomonas aeruginosa; conditions: n = 3, MHB; for MIC P. aeruginosa / EC50: mean ± standard error; for MIC P. aeruginosa / MIC P. aeruginosa (value in brackets): 22 h; for EC50: read-out: EC50 P. aeruginosa
Protocol: (§1) The antibacterial effect of the silver NHC complexes and selected ligands was evaluated in two Gram-positive [Enterococcus faecium, methicillin resistant S. aureus, (MRSA)] and in four Gram-negative (Acinetobacter baumannii, Escherichia coli, Klebsiella pneumoniae, and Pseudomonas aeruginosa) pathogenic bacterial strains using broth microdilution assays. The resulting minimal inhibitory concentrations (MICs, Table 2) and EC50 (Table S6) were determined by a curve fitting procedure. Silver nitrate (AgNO3), SSD, and various antibiotics were used as references.
(§2) The following strains of ESKAPE panel were utilized and maintained at 37 °C in MHB (21 g/L Müller Hinton broth, pH 7.4) or TSY (30 g/L trypticase soy broth, 3 g/L yeast extract, pH 7.0–7.2) media: A. baumannii (DSM 30007, ATCC 19606), E. coli (DSM1116, ATCC 9637), K. pneumoniae (DSM 11678, ATCC33495), P. aeruginosa PA7 (DSM 24068) in MHB; E. faecium (DSM 20477, ATCC 19434), and S. aureus MRSA (DSM 11822, ICB 25701) in TSY. MIC values were determined following a standardized protocol in broth microdilution assays. The compounds and reference substances (AgNO3 and SSD) were serially diluted from 64 to 1 μg/mL. Starting inocula of 2–8 × 10^5 CFU/mL in MHB or TSY media at 37 °C were used, and serial dilutions were carried out in 96-well microtiter plates in duplicate. After incubation of the plates for 22 h at 37 °C, the absorbance at 600 nm was measured using The Spark multimode microplate reader (Tecan Trading AG). The MIC values for the tested compounds were determined in three independent experiments and presented in μM with standard errors and also in μg/mL. Amikacin (P. aeruginosa), linezolid (S. aureus), and ciprofloxacin (all other strains) served as positive controls. The MIC and EC50 values were determined by curve fitting with Sigma Plot. To determine the effect of the culture medium on the activity of silver compounds, the assay was performed using MHB, TSY, or DMEM (Gibco). To observe the effect of individual components of TSY medium, antibacterial tests were performed using MHB with addition of tryptone (17 g/L) or yeast extract (3 g/L, both were purchased from Sigma).

[2] = test system: K. pneumoniae (DSM 11678, ATCC33495); test: Broth microdilution antibacterial assay; assay type: cell-based, Klebsiella pneumoniae; conditions: n = 3, MHB; for MIC K. pneumoniae / EC50: mean ± standard error; for MIC K. pneumoniae / MIC K. pneumoniae (value in brackets): 22 h; for EC50: read-out: EC50 K. pneumoniae
Protocol: as §1, §2

[3] = test system: E. coli (DSM1116, ATCC 9637); test: microbe, parasite or virus in culture; assay type: cell-based, Escherichia coli; conditions: n = 3, MHB; for EC50 / MIC E. coli: mean ± standard error; for MIC E. coli / MIC E. coli (value in brackets): 22 h
Protocol: as §1, §2

[4] = Conductometry: molar conductivity of silver complexes in DMSO; assay type: physicochemical; conditions: 1.0 mM in DMSO, calculated as monocarbene (NHC)AgX
Protocol: Since both the neutral monocarbene and the ionic biscarbene form of the complexes may exist in various proportions in the solution, conductometry studies were performed to reveal the dominant structure. The molar conductivity of 1.0 mM solutions of each complex in DMSO was determined after different periods up to 24 h using AgNO3 as 1:1 electrolyte reference (see Table 1). According to the literature, the expected range of molar conductivity for 1:1 electrolytes in DMSO is 35–90 S cm^2 mol^–1.[45],[46]
Conductivity measurements were performed using an Apera Instruments EC9500 conductivity meter. Solutions (as indicated, otherwise 1.0 mM) of all compounds were prepared using freshly distilled DMSO with a specific electrical conductivity of ≤3 × 10^–8 S cm^–1. The conductivities were measured at 25 ± 2 °C immediately after complete dissolution and after 24 h.

[5] = test system: E. faecium (DSM 20477, ATCC 19434); test: Broth microdilution antibacterial assay; assay type: cell-based, Enterococcus faecium; conditions: n = 3, TSY; for MIC E. faecium / EC50: mean ± standard error; for MIC E. faecium / MIC E. faecium (value in brackets): 22 h; for EC50: read-out: EC50 E. faecium
Protocol: as §1, §2

[6] = test system: S. aureus MRSA (DSM 11822, ICB 25701); test: microbe, parasite or virus in culture; assay type: cell-based, methicillin resistant S. aureus; conditions: n = 3, TSY; for MIC MRSA / EC50: mean ± standard error; for MIC MRSA / MIC MRSA (value in brackets): 22 h; for EC50: read-out: EC50 MRSA
Protocol: as §1
The importance of the culture medium used in antibacterial assays has been pointed out for antibiotics and in particular for silver.[53]−[55] In our recent studies, tryptic soy yeast (TSY) broth has been used for growing Gram-positive bacteria. Two components thereof, tryptone and yeast extract, have been reported to affect the antibacterial activity of silver nitrate.[55] Moreover, such an effect was also observed for other media containing at least one of those components.[11],[53] […] Silver nitrate served as a reference, and three different growth media were studied, namely, Müller-Hinton Broth (MHB, commonly used for Gram-negative bacteria), TSY broth (commonly used for Gram-positive bacteria), and DMEM supplemented with 10% FCS (commonly used for growth of mammalian and human cells).
as §2

[7] = test system: A. baumannii (DSM 30007, ATCC 19606); test: Broth microdilution antibacterial assay; assay type: cell-based, Acinetobacter baumannii; conditions: n = 3, MHB; for MIC A. baumannii / EC50: mean ± standard error; for MIC A. baumannii / MIC A. baumannii (value in brackets): 22 h; for EC50: read-out: EC50 A. baumannii
Protocol: as §1, §2

| Compound | MIC P. aeruginosa [1] [µM] | EC50 [1] [µM] | MIC P. aeruginosa (value in brackets) [1] [µg/mL] | MIC K. pneumoniae [2] [µM] | EC50 [2] [µM] | MIC K. pneumoniae (value in brackets) [2] [µg/mL] | EC50 [3] [µM] | MIC E. coli [3] [µM] | MIC E. coli (value in brackets) [3] [µg/mL] | Molar conductivity ΛM ([4]; 1 h after dissolution) [S cm^2 mol^–^1] | Molar conductivity ΛM ([4]; 24 h after dissolution) [S cm^2 mol^–^1] | MIC E. faecium [5] [µM] | EC50 [5] [µM] | MIC E. faecium (value in brackets) [5] [µg/mL] | MIC MRSA [6] [µM] | EC50 [6] [µM] | MIC MRSA (value in brackets) [6] [µg/mL] | MIC A. baumannii [7] [µM] | EC50 [7] [µM] | MIC A. baumannii (value in brackets) [7] [µg/mL] |
| --- | --- | --- | --- | --- | --- | --- | --- | --- | --- | --- | --- | --- | --- | --- | --- | --- | --- | --- | --- | --- |
| Cn1[c]([Ag][Cl])[n+](Cc2ccccn2)c2ccccc21 [1a] | 10.9 ± 0.0 | 5.7 ± 0.8 | 4 | 18.2 ± 3.6 | 8.5 ± 1.2 | 7 | 53.3 ± 8.6 | 116 ± 29 | 43 | 2.88 | 3.05 | 175 ± 0.0 | 145 ± 2.3 | 64 | 175 ± 0.0 | 146 ± 2.8 | 64 | 14.6 ± 3.6 | 1.7 ± 0.4 | 5 |
| [Cl][Ag][c]1n(Cc2ccccc2)c2ccccc2[n+]1Cc1ccccn1 [5a] | 30.1 ± 6.0 | 16 ± 1.7 | 13 | 18.1 ± 0.0 | 8.5 ± 1 | 8 | 35.1 ± 1.1 | 60.2 ± 12.0 | 27 | 4.24 | 3.70 | 145 ± 0.0 | 119 ± 3.6 | 64 | 145 ± 0.0 | 82.9 ± 1.5 | 64 | 9.0 ± 0.0 | 1.7 | 4 |
| CCn1[c](=[Ag][Br])n(Cc2ccccn2)c2ccccc21 [2b, Bromido (1-Ethyl-3-(pyridin-2-ylmethyl)-benzimidazol-2-ylidene) Silver(I)] | 9.4 ± 0.0 | 6.9 ± 0.5 | 4 | 15.7 ± 3.1 | 9 ± 1 | 7 | 35.6 ± 9.4 | 50.2 ± 12.5 | 21 | 5.47 | 5.07 | 151 ± 0.0 | 128 ± 0.9 | 64 | 151 ± 0.0 | 88.5 ± 1.6 | 64 | 12.5 ± 3.1 | 2.2 ± 0.3 | 5 |
